“Also recorded” adds a separate entry of the source. Where two headings read alike, the source gives them in different places. Some results are limits rather than exact numbers.

The values that follow come from US9115065B2 (priority 2004, dated 2015).

Data set [1] deals with S. typhimurium tester strains TA7007 and TA7006 and TA98.
Data set [2] relates to Tacaribe virus. It is filed as cell-based. The settings on record: read-out: Tacaribe (Plaque reduction) EC50.
In a further data set the test system is Guanarito. It is filed as cell-based, Guanarito virus. The settings on record: read-out: Guanarito (Plaque reduction) EC50.
Data set [3] has as its system Tacaribe virus. Set-up: species or system BALB/c mice. The conditions noted are these: mouse, in vivo.
For the next data set, the system named is Machupo. It is filed as cell-based, Machupo virus. The settings on record: read-out: Machupo (Plaque reduction) EC50.
The conditions of data set [4]: in vivo.
In data set [5] the test system is drug resistant Tacaribe mutants. It is filed as cell-based, Tacaribe virus.
The conditions of data set [6]: in vivo. The source holds these as a separate data set.
The conditions of data set [7]: mouse, in vivo, ip, 100 mg/kg/day.
The test system of the next data set is icd-GPC. The data set is classed as binding, Junin virus.
Data set [8] deals with Tacaribe virus. The data set is described as follows: microbe, parasite or virus in culture. It is filed as cell-based.
The subject of another data set is Junín. The data set is classed as cell-based, Junin virus. The settings on record: read-out: Junin (Plaque reduction) EC50.

By EC50 is commonly meant the midpoint of the concentration-response curve. Usually CC50 stands for the concentration that lowers cell viability or growth by half. Higher therefore signals better tolerance by the cells. Turning to “N-2-(1,1,1,3,3,3-hexafluoro-1-methylpropyl)-2-[(4-difluoromethoxyphenyl)sulfonyl]hydrazine-1-carboxamide [ST-294]”, the “Genotoxicity (Ames test)” value in data set [1] was “negative”. For the same substance, the EC50 turned out to be 100 nM in the data set with Tacaribe virus [2]; 1000 nM in the data set with Guanarito; 300 nM in the data set on Machupo; 120 nM in the data set with Tacaribe virus [8] (read-out: Tacaribe (CPE) EC50); 300 nM with Junín. Further, in the data set with Tacaribe virus [3], the “efficacy (survival) in Tacaribe infected newborn mice” value is “both survival and a delay in death similar to the drug control; also recorded: significant protection against Tacaribe virus induced disease”. This substance also displayed a CC50 with Vero cells above 50000 nM. Further, in data set [4], the “PK (newborn mouse/IP) Cmax” value came to 2910 ng/mL. For the same substance, the “PK (newborn mouse/IP) ½ life” value in data set [4] was determined as 3 h. For the same substance, the “susceptibility of ST-336 drug resistant Tacaribe variants” value in [5] is on record as “all of the mutants elicited cross-resistance”. Further, the “PK (rat/oral) ½ life” value in data set [6] came to 2 h. The “Cmax (serum levels)” value in data set [6] (rat, po) worked out at 6670 ng/mL. The tolerability entry in data set [7] is “well tolerated”. For the same substance, the “displacement of bound ST-375 from icd-GPC” value with icd-GPC was “displaced from icd-GPC in a time- and concentration-dependent manner”. In addition, in the data set on Tacaribe virus [8], the “Tacaribe virus CPE EC50” value is 0.066 µg/mL.
